Earlier results on one compound are cited in patent US20050272704A1, “Compounds, compositions and methods for stabilizing transthyretin and inhibiting transthyretin misfolding” (priority 2004, published 2005).

Each structure is given as a SMILES string. Where two headings read alike, the source gives them in different places.

As to `O=C(O)c1cc(-c2ccc(F)cc2F)ccc1O` [diflunisal], the “diflunisal concentration in blood” value reads like this: (4 h after a single 500 mg dose) above 300 µM; (20 h after a single 500 mg dose) “exceed 30 μM”.
